For the assay, the system named is NCIH929.1 cells. In words: Cell viability assay (CellTiter-Glo 2.0, ATP quantification). The settings on record: NCIH929.1 cell viability, CellTiter-Glo 2.0, 96 hr incubation, top concentration 1 μM. The class given is cell-based. In short, it runs like this:
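Cells seeded at 750/well in RPMI with 10% FBS and 0.05 mM 2-mercaptoethanol, exposed 96 h at 37 °C to 10-point half-log dilutions in duplicate, top 1 μM. Viability by CellTiter-Glo 2.0 ATP luminescence, with a day-0 read as cytostatic baseline (CT0).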
In general terms: ATP-based viability assays read luminescence as a measure of living cells.

As a reminder, the GI50 is the concentration that inhibits growth by half. Higher therefore signals lower sensitivity of the cells.

Take `CC(C(=O)N1CCC(n2cc(CNc3cccc4c3C(=O)N(C3CCC(=O)NC3=O)C4=O)cn2)CC1)(C(F)(F)F)C(F)(F)F` (centres unmarked) [Compound 56, 2-(2,6-dioxopiperidin-3-yl)-4-(((1-(1-(3,3,3-trifluoro-2-methyl-2-(trifluoromethyl)propanoyl)piperidin-4-yl)-1H-pyrazol-4-yl)methyl)amino)isoindoline-1,3-dione]: the GI50 is below 100 nM.

`N#CCC(=O)N1CCC(n2cc(CNc3cccc4c3C(=O)N(C3CCC(=O)NC3=O)C4=O)cn2)CC1` (centres unmarked) [Compound 19, 3-(4-(4-(((2-(2,6-dioxopiperidin-3-yl)-1,3-dioxoisoindolin-4-yl)amino)methyl)-1H-pyrazol-1-yl)piperidin-1-yl)-3-oxopropanenitrile]: the GI50 was below 100 nM.

Molecule `Cc1cncc(N2CCC(C(=O)N3CCC(n4cc(CNc5cccc6c5C(=O)N(C5CCC(=O)NC5=O)C6=O)cn4)CC3)CC2)n1` (centres unmarked) [Compound 122, 2-(2,6-dioxopiperidin-3-yl)-4-(((1-(1-(1-(6-methylpyrazin-2-yl)piperidine-4-carbonyl)piperidin-4-yl)-1H-pyrazol-4-yl)methyl)amino)isoindoline-1,3-dione] had a GI50 below 1 nM.

Consider `Cn1cc(C(=O)N2CCC(n3cc(CNc4cccc5c4C(=O)N(C4CCC(=O)NC4=O)C5=O)cn3)CC2)cn1` (centres unmarked) [Compound 34, 2-(2,6-dioxopiperidin-3-yl)-4-(((1-(1-(1-methyl-1H-pyrazole-4-carbonyl)piperidin-4-yl)-1H-pyrazol-4-yl)methyl)amino)isoindoline-1,3-dione], for which the GI50 was below 100 nM.

With `CN(CCCn1cc(CNc2cccc3c2C(=O)N(C2CCC(=O)NC2=O)C3=O)cn1)C(=O)OC(C)(C)C` (centres unmarked) [Compound 154, tert-butyl N-[3-[4-[[[2-(2,6-dioxo-3-piperidyl)-1,3-dioxo-isoindolin-4-yl]amino]methyl]pyrazol-1-yl]propyl]-N-methyl-carbamate], the concentration for 50% growth inhibition (GI50) was below 100 nM.

Regarding `O=C1CCC(N2C(=O)c3cccc(NCc4cnn(C5CCN(C6CC7(CCC7)C6)CC5)c4)c3C2=O)C(=O)N1` (centres unmarked) [Compound 135, 2-(2,6-dioxopiperidin-3-yl)-4-(((1-(1-(spiro[3.3]heptan-2-yl)piperidin-4-yl)-1H-pyrazol-4-yl)methyl)amino)isoindoline-1,3-dione], the GI50 was below 100 nM.

In the case of `O=C1CCC(N2C(=O)c3cccc(NCc4cnn(C5CCN(C(=O)C6CCN(C(=O)Cc7ccccc7)CC6)CC5)c4)c3C2=O)C(=O)N1` (centres unmarked) [Compound 113, 2-(2,6-dioxopiperidin-3-yl)-4-(((1-(1-(1-(2-phenylacetyl)piperidine-4-carbonyl)piperidin-4-yl)-1H-pyrazol-4-yl)methyl)amino)isoindoline-1,3-dione], the GI50 was below 100 nM.

Turning to `O=C1CCC(N2C(=O)c3cccc(NCc4cnn(C5CCN(C(=O)C(F)(F)C(F)(F)F)CC5)c4)c3C2=O)C(=O)N1` (centres unmarked) [Compound 83, 2-(2,6-dioxopiperidin-3-yl)-4-(((1-(1-(2,2,3,3,3-pentafluoropropanoyl)piperidin-4-yl)-1H-pyrazol-4-yl)methyl)amino)isoindoline-1,3-dione], the GI50 was below 100 nM.

`O=C1CCC(N2C(=O)c3cccc(NCc4cnn(C5CCN(C(=O)C67CC(CO6)C7)CC5)c4)c3C2=O)C(=O)N1` (centres unmarked) [Compound 91, 4-(((1-(1-(2-oxabicyclo[2.1.1]hexane-1-carbonyl)piperidin-4-yl)-1H-pyrazol-4-yl)methyl)amino)-2-(2,6-dioxopiperidin-3-yl)isoindoline-1,3-dione] gave a GI50 below 100 nM.

Molecule `COCCC(=O)N1CCC(n2cc(CNc3cccc4c3C(=O)N(C3CCC(=O)NC3=O)C4=O)cn2)CC1` (centres unmarked) [Compound 6, 2-(2,6-dioxopiperidin-3-yl)-4-(((1-(1-(3-methoxypropanyl)piperidin-4-yl)-1H-pyrazol-4-yl)methyl)amino)isoindoline-1,3-dione] came in with a GI50 below 100 nM.

Take `O=C1CCC(N2C(=O)c3cccc(NCc4cnn(CC5CCOCC5)c4)c3C2=O)C(=O)N1` (centres unmarked) [Compound 155, 2-(2,6-dioxo-3-piperidyl)-4-[[1-(tetrahydropyran-4-ylmethyl)pyrazol-4-yl]methylamino]isoindoline-1,3-dione]: the GI50 is below 100 nM.
